The record followed here is patent US20230322846A9, “NEUROACTIVE STEROIDS AND THEIR METHODS OF USE” (SAGE THERAPEUTICS, INC., priority 2018, published 2023).

For this assay, the target named is [35S]-TBPS binding, rat brain cortical membranes. The experiment in a line: Steroid inhibition of [35S]-TBPS binding. To be noted: 3 nM [35S]-TBPS, in the presence of 5 mM GABA. As for the experimental part: [^35S]-t-Butylbicyclophosphorothionate (TBPS) binding assays using rat brain cortical membranes in the presence of 5 mM GABA has been described (Gee et al, J. Pharmacol. Exp. Ther. 1987, 241, 346-353; Hawkinson et al, Mol. Pharmacol. 1994, 46, 977-985; Lewin, A. H et al., Mol. Pharmacol. 1989, 35, 189-194).
Briefly, cortices are rapidly removed following decapitation of carbon dioxide-anesthetized Sprague-Dawley rats (200-250 g). The cortices are homogenized in 10 volumes of ice-cold 0.32 M sucrose using a glass/teflon homogenizer and centrifuged at 1500×g for 10 min at 4° C. The resultant supernatants are centrifuged at 10,000×g for 20 min at 4° C. to obtain the P2 pellets. The P2 pellets are resuspended in 200 mM NaCl/50 mM Na—K phosphate pH 7.4 buffer and centrifuged at 10,000×g for 10 min at 4° C. This washing procedure is repeated twice and the pellets are resuspended in 10 volumes of buffer. Aliquots ([…]) of the membrane suspensions are incubated with 3 nM [^35S]-TBPS and […] aliquots of test drug dissolved in dimethyl sulfoxide (DMSO) (final 0.5%) in the presence of 5 mM GABA. The incubation is brought to a final volume of 1.0 mL with buffer. Nonspecific binding is determined in the presence of […] and ranged from 15 to 25%. Following a 90 min incubation at room temp, the assays are terminated by filtration through glass fiber filters (Schleicher and Schuell No. 32) using a cell harvester (Brandel) and rinsed three times with ice-cold buffer. Filter bound radioactivity is measured by liquid scintillation spectrometry. Non-linear curve fitting of the overall data for each drug averaged for each concentration is done using Prism (GraphPad). […] The concentration of test compound producing 50% inhibition (IC50) of specific binding and the maximal extent of inhibition (Imax) are determined for the individual experiments with the same model used for the overall data and then the means±SEM.s of the individual experiments are calculated.
Various compounds are or can be screened to determine their potential as modulators of [^35S]-TBPS binding in vitro. These assays are or can be performed in accordance with the above

In general, IC50 refers to the midpoint of a concentration-inhibition curve. For the molecule `COC[C@@]1(O)CC[C@H]2[C@@H](CC[C@@H]3[C@@H]2CC[C@]2(C)[C@@H]([C@H](C)Cn4nnnc4C)CC[C@@H]32)C1` [Example 56, (3R,5S,8R,9R,10S,13S,14S,17R)-3-(methoxymethyl)-13-methyl-17-((S)-1-(5-methyl-1H-tetrazol-1-yl)propan-2-yl)hexadecahydro-1H-cyclopenta[a]phenanthren-3-ol], the concentration for half-maximal inhibition (IC50) fell in the range of 100 to 1000 nM. Regarding `COC[C@@]1(O)CC[C@@]2(C)[C@H](CC[C@@H]3[C@@H]2[C@@H](O)C[C@]2(C)[C@@H]([C@H](C)Cn4cc(C#N)cn4)CC[C@@H]32)C1` [Example 328, 1-((S)-2-((3R,5R,8S,9S,10S,11S,13S,14S,17R)-3,11-dihydroxy-3-(methoxymethyl)-10,13-dimethylhexadecahydro-1H-cyclopenta[a]phenanthren-17-yl)propyl)-1H-pyrazole-4-carbonitrile], the concentration for half-maximal inhibition (IC50) was in the range of 100 to 1000 nM. In the case of `CC[C@@]1(O)CC[C@H]2[C@H](CC[C@@H]3[C@@H]2CC[C@]2(C)[C@@H]([C@@H](C)Nc4ccc(C#N)nc4)CC[C@@H]32)C1` [Example 491, 5-(((R)-1-((3R,5R,8R,9R,10S,13S,14S,17S)-3-ethyl-3-hydroxy-13-methylhexadecahydro-1H-cyclopenta[a]phenanthren-17-yl)ethyl)amino)picolinonitrile] it was 100 to 1000 nM; in that of `CC(C)[C@@]1(O)CC[C@H]2[C@H](CC[C@@H]3[C@@H]2CC[C@]2(C)[C@@H]([C@H](C)Cn4cc(C#N)cn4)CC[C@@H]32)C1` [Example 344, 1-((S)-2-((3R,5R,8R,9R,10S,13S,14S,17R)-3-hydroxy-3-isopropyl-13-methylhexadecahydro-1H-cyclopenta[a]phenanthren-17-yl)propyl)-1H-pyrazole-4-carbonitrile], no less than 10000 nM; in that of `CCC[C@@]1(O)CC[C@H]2[C@H](CC[C@@H]3[C@@H]2CC[C@]2(C)[C@@H]([C@@H](C)Cn4nnnc4C)CC[C@@H]32)C1` [Example 324, (3R,5R,8R,9R,10S,13S,14S,17R)-13-methyl-17-(1-(5-methyl-1H-tetrazol-1-yl)propan-2-yl)-3-propylhexadecahydro-1H-cyclopenta[a]phenanthren-3-ol], less than 100 nM. The result for `CCOC[C@@]1(O)CC[C@H]2[C@H](CC[C@@H]3[C@@H]2CC[C@]2(C)[C@@H](CNC(=O)c4ccccc4)CC[C@@H]32)C1` [Example 15, N-(((3R,5R,8R,9R,10S,13S,14S,17S)-3-(ethoxymethyl)-3-hydroxy-13-methylhexadecahydro-1H-cyclopenta[a]phenanthren-17-yl)methyl)benzamide] reads less than 100 nM.

Turning to `CCOC[C@@]1(O)CC[C@H]2[C@H](CC[C@@H]3[C@@H]2CC[C@]2(C)[C@@H]([C@@H](C)Cc4cccc(C#N)c4)CC[C@@H]32)C1` [Example 402, 3-((S)-2-((3R,5R,8R,9R,10S,13R,14S,17R)-3-(ethoxymethyl)-3-hydroxy-13-methylhexadecahydro-1H-cyclopenta[a]phenanthren-17-yl)propyl)benzonitrile], the half-maximal inhibitory concentration (IC50) is less than 100 nM. In the case of `Cc1cncc(C[C@H](C)[C@H]2CC[C@H]3[C@@H]4CC[C@@H]5C[C@](C)(O)CC[C@@H]5[C@H]4CC[C@]23C)n1` [Example 441] it was less than 100 nM; in that of `Cc1cnc(C[C@H](C)[C@H]2CC[C@H]3[C@@H]4CC[C@@H]5C[C@](C)(O)CC[C@@H]5[C@H]4CC[C@]23C)nc1` [Example 437], less than 100 nM. As to `C[C@@H](NS(=O)(=O)c1ccccc1)[C@H]1CC[C@H]2[C@@H]3CC[C@@H]4C[C@](C)(O)CC[C@@H]4[C@H]3CC[C@]12C` [Example 18, N—((R)-1-((3R,5R,8R,9R,10S,13S,14S,17S)-3-hydroxy-3,13-dimethylhexadecahydro-1H-cyclopenta[a]phenanthren-17-yl)ethyl)benzenesulfonamide], the 50% inhibitory concentration (IC50) is less than 100 nM.

For the molecule `COC[C@@]1(O)CC[C@H]2[C@H](CC[C@@H]3[C@@H]2CC[C@@]2(C)[C@H]3CC[C@]2(O)[C@@H](C)Cn2cc(C#N)cn2)C1` [Example 354], the IC50 fell in the range of 1000 to 10000 nM. In the case of `C[C@@]1(O)CC[C@H]2[C@H](CC[C@@H]3[C@@H]2CC[C@]2(C)[C@@H](CN4C(=O)CCC[C@H]4c4ccccc4)CC[C@@H]32)C1` [Example 14, (S)-1-(((3R,5R,8R,9R,10S,13S,14S,17S)-3-hydroxy-3,13-dimethylhexadecahydro-1H-cyclopenta[a]phenanthren-17-yl)methyl)-6-phenylpiperidin-2-one] it was 100 to 1000 nM; in that of `COC[C@@]1(O)CC[C@H]2[C@H](CC[C@@H]3[C@@H]2CC[C@@]2(C)[C@H]3CC[C@]2(O)[C@H](C)Cn2cc(C#N)cn2)C1` [Example 353], 1000 to 10000 nM; in that of `C[C@@H](Cc1ncc(CO)s1)[C@H]1CC[C@H]2[C@@H]3CC[C@@H]4C[C@](C)(O)CC[C@@H]4[C@H]3CC[C@]12C` [Example 428], less than 100 nM.

With `COC[C@@]1(O)CC[C@@]2(C)[C@H](CC[C@@H]3[C@@H]2[C@H](O)C[C@]2(C)[C@@H]([C@@H](C)Cn4cc(C#N)cn4)CC[C@@H]32)C1` [Example 283, 1-((R)-2-((3R,5R,8S,9S,10S,11R,13S,14S,17R)-3,11-dihydroxy-3-(methoxymethyl)-10,13-dimethylhexadecahydro-1H-cyclopenta[a]phenanthren-17-yl)propyl)-1H-pyrazole-4-carbonitrile], the IC50 fell in the range of 100 to 1000 nM. In the case of `CCOC(=O)c1cnc(C[C@H](C)[C@H]2CC[C@H]3[C@@H]4CC[C@H]5C[C@](C)(O)CC[C@@H]5[C@H]4CC[C@]23C)o1` (stereo in doubt) [Example 455] it was less than 100 nM. As to `CC[C@@]1(O)CC[C@@]2(C)[C@H](CC[C@@H]3[C@@H]2CC[C@]2(C)[C@@H]([C@H](C)Cn4nccc4C#N)CC[C@@H]32)C1` [Example 64, 1-((S)-2-((3R,5R,8R,9S,10S,13S,14S,17R)-3-ethyl-3-hydroxy-10,13-dimethylhexadecahydro-1H-cyclopenta[a]phenanthren-17-yl)propyl)-1H-pyrazole-5-carbonitrile], the IC50 was less than 100 nM. The result for `CCOC[C@@]1(O)CC[C@H]2[C@H](CC[C@@H]3[C@@H]2CC[C@]2(C)[C@@H]([C@H](C)Cn4nnc(C)n4)CC[C@@H]32)C1` [Example 289, (3R,5R,8R,9R,10S,13S,14S,17R)-3-(ethoxymethyl)-13-methyl-17-((S)-1-(5-methyl-2H-tetrazol-2-yl)propan-2-yl)hexadecahydro-1H-cyclopenta[a]phenanthren-3-ol] reads less than 100 nM; that for `CCOC[C@@]1(O)CC[C@H]2[C@H](CC[C@@H]3[C@@H]2CC[C@]2(C)[C@@H]([C@@H](C)Nc4cccc(N5CCCC5=O)c4C)CC[C@@H]32)C1` [Example 259], less than 100 nM; that for `COC[C@@]1(O)CC[C@H]2[C@H](CC[C@@H]3[C@@H]2CC[C@]2(C)[C@@H]([C@H](C)Nc4ccc(C#N)cc4)CC[C@@H]32)C1` [Example 257], 100 to 1000 nM. For the molecule `C[C@H](Cc1nc(C(F)(F)F)cs1)[C@H]1CC[C@H]2[C@@H]3CC[C@@H]4C[C@](C)(O)CC[C@@H]4[C@H]3CC[C@]12C` [Example 450], the half-maximal inhibitory concentration (IC50) was 100 to 1000 nM. In the case of `C[C@H](Cc1ccc(C(F)(F)F)nc1)[C@H]1CC[C@H]2[C@@H]3CC[C@@H]4C[C@](C)(O)CC[C@]4(C)[C@H]3CC[C@]12C` [Example 426] it was 100 to 1000 nM; in that of `CCC[C@@]1(O)CC[C@@]2(COC)[C@H](CC[C@H]3[C@@H]4CC[C@H]([C@@H](C)Cn5nnnc5C)[C@@]4(C)CC[C@@H]32)C1` [Example 321, (3R,5R,8S,9S,10R,13S,14S,17R)-10-(methoxymethyl)-13-methyl-17-((R)-1-(5-methyl-1H-tetrazol-1-yl)propan-2-yl)-3-propylhexadecahydro-1H-cyclopenta[a]phenanthren-3-ol], less than 100 nM. Turning to `CCOC[C@@]1(O)CC[C@@]2(C)[C@H](CC[C@@H]3[C@@H]2CC[C@]2(C)[C@@H]([C@@H](CC)Nc4ccc(C#N)nc4)CC[C@@H]32)C1` [Example 495, 5-(((R)-1-((3R,5R,8R,9S,10S,13S,14S,17S)-3-(ethoxymethyl)-3-hydroxy-10,13-dimethylhexadecahydro-1H-cyclopenta[a]phenanthren-17-yl)propyl)amino)picolinonitrile], the IC50 lay in the range of 100 to 1000 nM.
